Measurements taken from patent US6133273A, “Pyrazolopyrimidine-2,4-dione sulfonamides” (American Home Products Corporation, priority 1999, dated 2000).

Experiments:
[1] = system: C1-3 cell line (calcitonin secretion); assay: Calcitonin Secretion/RIA Assay; format: cell-based, human; conditions: active if >2.5; for fold induction at 30 µM: Homo sapiens, C13, ratio of calcitonin secretion vs untreated control; for Secretion Ratio: 30 μM, ratio of calcitonin secretion vs untreated control
Protocol: Cell Line: C1-3 (Parent Cell Line: TT-medullary thyroid carcinoma),
Reagent A--(Anti-Calcitonin)
Regent C--(Anti-Goat Precipitant)
Regent D--(Zero Standard).
Reagents E-I--(Calcitonin Standards)
Reagents J-K (Calcitonin Controls: Level and Level 2)
1. Glass tubes were labeled to include Total Count (TC), Nonspecific Binding (NSB), Maximum Binding (Bo), Standards, Controls and Patient Sera in duplicate.
2. […] of Standard Zero (Reagent D) was added to tubes 3 through 6 (NSB and Bo).
3. […] of Standards* (Reagents E-1) was added to tubes 7-16 as follows:
4. […] of Patient Serum 1 was added to tubes 21 and 22, Patient Serum 2 was added to tubes 23 and 24, etc.
5. […] of Reagent L (NSB Buffer) was added to tubes 3 and 4.
6. […] of Reagent A (Anti-Calcitonin) was added to all tubes except tubes 1 & 2 (TC) and tube 3 & 4 (NSB). All tubes were vortexed, covered with parafilm or foil and incubated 44±6 hours at 2-8° C.
7. […] All tubes were vortexed, covered with parafilm or foil and incubated 22±3 hours at 2-8° C.
8. Reagent C (Anti-Goat Precipitant) was mixed gently but thoroughly by inverting the vial several times before use. 1 mL Reagent C was added to all tubes except 1 and 2 (TC). Tubes were vortexed and incubated 20 minutes at room temperature.
9. All tubes were centrifuged at 1300-1500×g for 15 minutes at 2-8° C.
10. Supernatant was decanted immediately after centrifugation taking care to leave the precipitate intact.
11. Tubes were counted 4 minutes or longer.
Secretion Ratio: Stimulation of calcitonin secretion is expressed as a ratio of secretion activity in the presence of test compound compared to the secretion activity in the untreated control: [formula]

[2] = system: promoter region of the human calcitonin gene (luciferase reporter, C1-3 cells); assay: Calcitonin/Luciferase Reporter Gene Expression Assay; conditions: Homo sapiens, C13, 12 h, read-out: TAR (transcription activation ratio)
Protocol: (§1) This assay was used to determine the ability of a compound to stimulate transcription of a luciferase reporter gene regulated by 3 kb of the promoter region of the human calcitonin gene.
(§2) C1-3 cells were plated at a density of 6,500-7,500 cells per well in a 96-plate microtiter plate. Twenty-four to forty-eight hours later, compounds were added to the wells in triplicate. Compounds were tested at a concentration of 10 μg/mL in 0.5% DMSO.
(§3) The production of light is measured on a luminometer.
(§4) TAR Ratio: Stimulation of calcitonin promoter-dependent transcription is expressed as a ratio of luciferase activity (LUCI) in the presence of test compound compared to the LUCI activity in the untreated control: [formula]

PDE-IV = assay: Inhibition of Phosphodiesterase IV (PDE-IV) isolated from human U937 cells; format: biochemical; conditions: U937 cell PDE-IV, 1 μM [3H]-cAMP, 37° C., test compound 0.001 μM to 10 μM
Protocol: This assay was used to biochemically assess the ability of a test compound to inhibit PDE-IV isolated from a U937 cell line, where PDE-IV refers to the cGMP-insensitive, cAMP-selective PDE.
Cell Culture: U937 cells were grown in RPMI 1640 medium supplemented with 10% heat-inactivated fetal calf serum and Penicillin/Streptomycin (100 units/100 μg per mL) in a humidified 5% CO2 atmosphere at 37° C. Starter cells were maintained in continuous logarithmic growth by seeding them in 75 cm^2 vented tissue culture flasks at a concentration of 3×10^4 cells/mL and passing them every 3-4 days when the cells reached approximately 8×10^5 cells/mL. For experiments, 3-4 day starter cells were seeded in 225 cm^2 flasks at 1×10^5 cells/mL and harvested 3-4 days later at approx. 6×10^5 cells/mL.
Isolation of PDE-IV: U937 cells were activated with 10 μM dibutyryl cAMP for a period of 4 hours (to up-regulate PDE-IV) and then harvested by centrifugation at 1200×g for 10 min in 250 mL conical centrifuge tubes. The pellet from each 200 mL flask was resuspended in 5 mL buffer A [10 mM Tris-HCl, 5 mM MgCl2, 4 mM EGTA, 5 mM 2-mercaptoethanol, 1 μM leupeptin, 1 μM pepstatin A, and 5 μM phenylmethyl sulfonyl fluoride (PMSF) (pH 7.8)], and the cells were lysed using 3 cycles of freezing (3 min in dry ice/acetone) followed by thawing (warm water). […] To determine which families of PDEs were present, fractions may be assayed for hydrolytic activity with 1 μM [^3 H]-cAMP or 1 μM [^3 H]-cGMP. Additionally, 1 μM [^3 H]-cAMP assays were conducted in the presence of 10 μM rolipram, 10 μM cGMP, or calmodulin (1 unit/0.4 mL plus 10 μM CaCl2).
When prepared in this manner, approximately 80% of total cAMP PDE activity is eluted by Buffer B containing 0.7 M sodium acetate. This PDE activity consists of>90% PDE-IV (as evidenced by its susceptibility to inhibition by rolipram.
PDE assay: PDE activity was measured using a modification of the radioisotope procedure previously described by Thompson et al. (Thompson, W. J., Terasaki, W. L., Epstein, P. M. and Strada, S. J. Adv, Cyclic Nucleotide Res. 1979, 10, 69). Reaction mixtures (0.4 mL) contain 40 mM Tris-HCl (pH 7.8), 4 mM 2-mercaptoethanol, 5 mM MgCl2, 0.1 μM leupeptin, 0.1 μM pepstatin A, 0.1 μM PMSF, 1 μM [3H]-cAMP or 1 μM [^3 H]-cGMP (~200,000 DPM), and enzyme to initiate the reaction. ^3 H-cAMP substrate was prepared as follows: A stock solution of ^3 H-cyclic nucleotide (1000 μCi/mL) was diluted 1:10 in 50% EtOH. 200 μl of this diluted stock solution was added to a cold (unlabeled) cyclic nucleotide solution, made at a concentration of 4 μM. 100 μl of this solution was used per assay tube to achieve a final concentration of 1 μM cyclic nucleotide per assay tube (200,000 DPM). Enzyme activity was determined at 37° C. Reactions were terminated by boiling, incubating with snake venom, and cooling as previously described (Thompson et al., 1979). The reaction mixture was applied to a (0.8×8.5 cm) column containing 0.4 g Dowex I-X8 affinity resin; reaction tubes were rinsed with 0.5 mL of methanol; and this, along with an extra 1 mL of methanol, was applied to the column to elute the ^3 H-reaction products. After all liquid has passed through the column, the column was plunged with a 12 cc syringe plunger. Each column's eluate was collected in a 20 mL scintillation vial containing 10 mL aquasol-2 and counted by scintillation spectrophotometry. [^3 H]-adenosine or [^3 H]-guanosine recovery was corrected for background DPM determined in the absence of enzyme. The amount of enzyme and duration of assay were adjusted to ensure that less than 25% of the substrate was consumed under these conditions.
Measurements: Inhibition by a test compound was measured as a percent reduction of total PDE activity, and calculated as follows: [formula] where A is the PDE activity (mean DPM-background DPM) in the presence of test compound, and B is the total PDE-IV activity (mean DPM-background DPM) in the absence of test compound. […]

[3] = Serum Calcium/Plasma Calcitonin Determination Assay (acute/subacute, rats); format: in vivo, Sprague Dawley rats; conditions: subacute, sc, n=8, 30 mg/kg/2x/day; for % Decrease Serum Calcium: Examples 4 and 7 marked * (p<0.05 vs. vehicle); for % Increase Plasma Calcitonin: Examples 5 and 7 marked * (p<0.05 vs. vehicle)
Protocol: This assay was used to evaluate the ability of a test compound to decrease serum calcium and increase plasma calcitonin in rats using either an acute or sub-acute protocol. […]
Subacute Administration Study: After 72 hours acclimatization, young male or female Sprague Dawley rats weighing 170-250 g were randomly divided in groups of 8. The rats were fasted and given deionized H2 O 18 hours prior to the start of the study. The purpose of the fasting is to reduce the variability in serum calcium and plasma calcitonin levels. Each rat was weighed.
C-G Test Compounds 30 mg/kg/2x/day ip or sc
^b In vehicle and test compound groups, the treatments that the
Measurements: Body weight, serum calcium levels and plasma calcitonin levels.
Data Evaluations: The difference in serum calcium and plasma calcitonin between a treatment group and the vehicle group was determined using a one-way analysis of variance with Dunnett's test, or other multiple comparison methods. Compounds were designated active if .rho.<0.05 vs. vehicle value.

[4] = system: promoter region of the human calcitonin gene (luciferase reporter, C1-3 cells); conditions: c1-3 tt cells, 12 h, 30 µM
Protocol: as §1, §2, §3, §4

| Molecule | fold induction at 30 µM [1] | fold induction at 30 µM [2] | % Inhibition of PDE IV (normalized to rolipram) (PDE-IV) [%] | % Decrease Serum Calcium [3] [%] | % Increase Plasma Calcitonin [3] [%] | Secretion Ratio [1] | TAR (transcription activation ratio) [4] |
| --- | --- | --- | --- | --- | --- | --- | --- |
| CCCCn1c(=O)c2nn(S(=O)(=O)c3cc(Cl)c(Cl)s3)cc2n(CCCC)c1=O [Example 6, 4,6-Dibutyl-2-(4,5-dichloro-thiophene-2-sulfonyl)-2,4-dihydro-pyrazolo[4,3-d]pyrimidine-5,7-dione] | 3.4 | 1.69 | 100 | 0 | 12 |  |  |
| 4,6-Dibutyl-1-(3,5-dimethyl-isoxazole-4-sulfonyl)-1,4-dihydro-pyrazolo[4,3- d]pyrimidine-5,7-dione [Example 8] |  |  | 26 |  |  | 3.23 | 2.14 |
| CCCCn1c(=O)c2nn(S(=O)(=O)c3ccc(C(C)(C)C)cc3)cc2n(CCCC)c1=O [Example 5, 4,6-Dibutyl-2-(4-tert-butyl-benzenesulfonyl)-2,4-dihydro-pyrazolo[4,3-d]pyrimidine-5,7-dione] | 4.5 | 2.27 | 63 | 1 | 101 |  |  |
| CCCCn1c(=O)c2nn(S(=O)(=O)c3ccc4ccccc4c3)cc2n(CCCC)c1=O [Example 4, 4,6-Dibutyl-2-(2-naphthalenesulfonyl)-2,4-dihydro-pyrazolo[4,3-d]pyrimidine-5,7-dione] | 4.91 | 1.75 | 33 | 5 | 8 |  |  |
| 4,6-Dibutyl-1-ethanesulfonyl-1,4-dihydro-pyrazolo[4,3-d]pyrimidine-5,7-dion [Example 10] |  |  | 45 |  |  | 2.90 | 1.43 |
| CCCCn1c(=O)c2cn(S(=O)(=O)c3c(C)nn(C)c3Cl)nc2n(CCCC)c1=O [Example 7] | 2.92 | 2.13 |  | 4 | 80 |  |  |
